Data from PMC11285368, “Chasing Red Herrings: Palladium Metal Salt Impurities Feigning KRAS Activity in Biochemical Assays” (Journal of Medicinal Chemistry, 2024).

What was measured:
Type in all cases: biochemical
off target [1] = assay: FKBP51 AlphaScreen, Target #3
Protocol: (§1) Metal salt solutions for the metal ion interference set (MIIS) were prepared as 10 mM stock solutions in DMSO (see Table 3). All metal salts used have been purchased at highest industrial grade.

FKBP51 = molecular target: T1, FKBP51 (Homo sapiens, UniProt Q13451); assay: FKBP51 AlphaScreen, Target #1
T1 sequence (Q13451 1-457): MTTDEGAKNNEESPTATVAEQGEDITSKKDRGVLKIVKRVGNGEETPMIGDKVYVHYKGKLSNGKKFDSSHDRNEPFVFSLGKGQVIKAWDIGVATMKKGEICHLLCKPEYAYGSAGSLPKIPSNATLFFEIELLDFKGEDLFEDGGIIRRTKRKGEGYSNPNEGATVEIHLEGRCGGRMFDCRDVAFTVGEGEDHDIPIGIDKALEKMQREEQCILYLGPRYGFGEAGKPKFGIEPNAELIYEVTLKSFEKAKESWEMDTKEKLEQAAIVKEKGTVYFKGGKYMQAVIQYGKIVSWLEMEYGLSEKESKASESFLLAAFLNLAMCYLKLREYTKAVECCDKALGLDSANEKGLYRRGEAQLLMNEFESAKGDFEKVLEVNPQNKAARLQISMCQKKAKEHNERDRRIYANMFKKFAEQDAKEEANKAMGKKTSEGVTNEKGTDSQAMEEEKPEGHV
Protocol: as §1

KRAS GDP = assay: KRAS AlphaScreen, Target #1
Protocol: as §1

off-target = assay: FKBP51 AlphaScreen, Target #2
Protocol: as §1

NSD3 = molecular target: T2, NSD3 (Homo sapiens, UniProt Q9BZ95); assay: NSD3 TR-FRET; conditions: read-out: Target #1 IC50
T2 sequence (Q9BZ95 1-1437): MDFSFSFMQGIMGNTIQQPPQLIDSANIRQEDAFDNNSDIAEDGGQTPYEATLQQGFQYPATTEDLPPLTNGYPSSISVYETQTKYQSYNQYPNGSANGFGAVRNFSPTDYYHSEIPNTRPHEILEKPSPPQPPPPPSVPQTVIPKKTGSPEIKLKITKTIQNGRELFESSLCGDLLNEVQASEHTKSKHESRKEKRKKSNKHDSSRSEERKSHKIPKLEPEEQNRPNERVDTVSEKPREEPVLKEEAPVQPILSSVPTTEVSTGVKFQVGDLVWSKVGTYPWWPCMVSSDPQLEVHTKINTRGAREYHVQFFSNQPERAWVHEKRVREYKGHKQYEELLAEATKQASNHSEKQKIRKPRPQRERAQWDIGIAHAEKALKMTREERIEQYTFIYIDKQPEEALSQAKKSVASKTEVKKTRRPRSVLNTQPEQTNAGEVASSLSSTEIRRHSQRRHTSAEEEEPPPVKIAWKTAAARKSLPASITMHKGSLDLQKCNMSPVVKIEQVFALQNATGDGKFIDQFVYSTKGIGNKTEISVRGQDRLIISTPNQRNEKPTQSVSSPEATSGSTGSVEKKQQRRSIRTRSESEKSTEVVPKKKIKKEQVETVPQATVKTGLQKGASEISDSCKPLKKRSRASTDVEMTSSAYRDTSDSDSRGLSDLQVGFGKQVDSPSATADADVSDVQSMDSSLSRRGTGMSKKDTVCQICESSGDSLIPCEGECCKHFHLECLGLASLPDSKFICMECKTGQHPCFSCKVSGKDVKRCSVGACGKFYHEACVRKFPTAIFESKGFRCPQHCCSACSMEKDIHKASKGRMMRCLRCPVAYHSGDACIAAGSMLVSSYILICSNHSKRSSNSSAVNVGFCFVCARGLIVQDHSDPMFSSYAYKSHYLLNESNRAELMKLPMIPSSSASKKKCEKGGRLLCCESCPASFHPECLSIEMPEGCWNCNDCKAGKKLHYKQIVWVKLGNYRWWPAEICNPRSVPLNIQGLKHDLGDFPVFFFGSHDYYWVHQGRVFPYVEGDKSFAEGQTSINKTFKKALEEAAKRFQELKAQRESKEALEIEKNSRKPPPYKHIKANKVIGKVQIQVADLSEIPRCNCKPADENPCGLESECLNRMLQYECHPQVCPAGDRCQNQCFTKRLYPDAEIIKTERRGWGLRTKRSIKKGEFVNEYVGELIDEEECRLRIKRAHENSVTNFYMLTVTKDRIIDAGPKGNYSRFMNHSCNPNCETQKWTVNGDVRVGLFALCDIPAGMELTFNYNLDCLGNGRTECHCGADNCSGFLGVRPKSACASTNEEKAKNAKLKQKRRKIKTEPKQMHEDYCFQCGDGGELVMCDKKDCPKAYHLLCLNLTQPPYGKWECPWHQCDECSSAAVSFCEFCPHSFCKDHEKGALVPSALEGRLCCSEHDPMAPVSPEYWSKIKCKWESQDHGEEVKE
Protocol: as §1

WRN (ext.) = WRN (ext.) (Homo sapiens, UniProt Q14191); assay: WRN ADP-Glo, Target #2
Sequence of WRN (ext.) (Q14191 whole entry, species assumed): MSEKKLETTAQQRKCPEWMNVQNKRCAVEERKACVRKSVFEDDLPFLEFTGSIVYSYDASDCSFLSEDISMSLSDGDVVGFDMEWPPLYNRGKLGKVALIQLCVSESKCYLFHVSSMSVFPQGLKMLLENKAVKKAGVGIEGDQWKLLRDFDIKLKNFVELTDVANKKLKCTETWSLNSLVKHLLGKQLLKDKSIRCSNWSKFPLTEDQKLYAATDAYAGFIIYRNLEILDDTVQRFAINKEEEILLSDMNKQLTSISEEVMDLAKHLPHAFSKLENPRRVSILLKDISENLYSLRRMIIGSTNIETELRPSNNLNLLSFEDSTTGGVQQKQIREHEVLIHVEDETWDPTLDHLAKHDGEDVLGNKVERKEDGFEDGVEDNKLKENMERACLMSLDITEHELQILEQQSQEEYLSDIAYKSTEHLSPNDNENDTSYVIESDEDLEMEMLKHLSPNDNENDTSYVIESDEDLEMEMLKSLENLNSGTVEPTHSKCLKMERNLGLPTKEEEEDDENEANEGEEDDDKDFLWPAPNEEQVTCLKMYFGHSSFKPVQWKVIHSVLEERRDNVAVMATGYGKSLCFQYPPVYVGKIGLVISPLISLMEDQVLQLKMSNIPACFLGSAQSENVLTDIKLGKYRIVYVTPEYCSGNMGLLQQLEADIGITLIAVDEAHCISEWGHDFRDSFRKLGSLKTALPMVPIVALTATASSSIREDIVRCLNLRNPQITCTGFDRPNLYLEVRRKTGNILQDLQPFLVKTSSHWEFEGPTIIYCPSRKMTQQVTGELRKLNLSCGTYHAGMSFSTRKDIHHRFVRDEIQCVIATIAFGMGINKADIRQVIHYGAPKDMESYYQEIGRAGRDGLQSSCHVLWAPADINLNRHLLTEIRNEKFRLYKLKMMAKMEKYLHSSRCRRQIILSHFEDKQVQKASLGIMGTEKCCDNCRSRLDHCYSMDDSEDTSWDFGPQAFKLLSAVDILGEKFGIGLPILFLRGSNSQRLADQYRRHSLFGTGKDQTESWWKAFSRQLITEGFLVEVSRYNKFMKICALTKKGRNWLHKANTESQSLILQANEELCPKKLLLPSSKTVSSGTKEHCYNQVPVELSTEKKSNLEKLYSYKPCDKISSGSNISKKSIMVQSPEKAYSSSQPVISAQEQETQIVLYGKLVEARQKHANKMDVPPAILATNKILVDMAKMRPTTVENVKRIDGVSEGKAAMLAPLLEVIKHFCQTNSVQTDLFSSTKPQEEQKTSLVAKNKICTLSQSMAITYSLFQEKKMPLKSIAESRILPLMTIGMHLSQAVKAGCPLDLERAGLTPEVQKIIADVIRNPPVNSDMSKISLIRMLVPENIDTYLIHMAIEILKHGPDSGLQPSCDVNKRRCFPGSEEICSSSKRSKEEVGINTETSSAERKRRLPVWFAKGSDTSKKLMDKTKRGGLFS
Protocol: as §1

off target [2] = assay: KRAS AlphaScreen, Target #3
Protocol: as §1

off target (ext.) = assay: WRN ADP-Glo, Target #4
Protocol: as §1

UPAR = UPAR (Homo sapiens, UniProt Q03405); assay: UPA-UPAR AlphaScreen, Target #1
Sequence of UPAR (Q03405 23-305 limits assumed, species assumed): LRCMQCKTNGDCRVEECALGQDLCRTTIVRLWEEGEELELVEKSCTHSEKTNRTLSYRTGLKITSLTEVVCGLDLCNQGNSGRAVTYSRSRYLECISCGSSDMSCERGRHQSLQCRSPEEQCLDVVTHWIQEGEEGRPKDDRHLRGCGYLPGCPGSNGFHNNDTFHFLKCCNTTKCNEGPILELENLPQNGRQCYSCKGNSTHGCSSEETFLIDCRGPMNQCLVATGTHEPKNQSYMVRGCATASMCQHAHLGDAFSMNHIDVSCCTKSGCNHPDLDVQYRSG
Protocol: as §1

| Compound | IC50 (off target [1]) | IC50 (FKBP51) | IC50 (KRAS GDP) | IC50 (off-target) | IC50 (NSD3) | IC50 (WRN (ext.)) | IC50 (off target [2]) | IC50 (off target (ext.)) | IC50 (UPAR) |
| --- | --- | --- | --- | --- | --- | --- | --- | --- | --- |
| CC(=O)[O-].[Ag+] [Ag (CH 3COO), Silver acetate] | > 10 µM | > 10 µM | > 10 µM | > 10 µM | 1 to 10 µM | > 10 µM | > 10 µM | > 10 µM |  |
| O=[N+]([O-])[O-].O=[N+]([O-])[O-].O=[N+]([O-])[O-].[Al+3] [Al(NO3)3, Aluminum nitrate] | > 10 µM | < 1 µM | > 10 µM | 1 to 10 µM | > 10 µM | > 10 µM | > 10 µM | > 10 µM | > 10 µM |
| [Cl-].[Cl-].[Co+2] [CoCl2, Cobalt(II) chloride] | > 10 µM | > 10 µM | > 10 µM | > 10 µM | > 10 µM | > 10 µM | > 10 µM | > 10 µM | 1 to 10 µM |
| [Cl-].[Cl-].[Mg+2] [MgCl2, Magnesium chloride] | > 10 µM | > 10 µM | > 10 µM | > 10 µM | > 10 µM | > 10 µM | > 10 µM | > 10 µM | > 10 µM |
| [Cl][Ni][Cl] [NiCl2, Nickel(II) chloride] | > 10 µM | > 10 µM | > 10 µM | > 10 µM | > 10 µM | > 10 µM | > 10 µM | > 10 µM | < 1 µM |
| [Cl][Pd][Cl] [PdCl2, Palladium(II) chloride] | > 10 µM | > 10 µM | < 1 µM | > 10 µM | > 10 µM | 1 to 10 µM | > 10 µM | > 10 µM | < 1 µM |
| [Cl][Sn][Cl] [SnCl2, Tin(II) chloride] | > 10 µM | 1 to 10 µM | > 10 µM | > 10 µM | < 1 µM | > 10 µM | > 10 µM | > 10 µM | > 10 µM |

Continued, values first:

| IC50 (off target [1]) | IC50 (FKBP51) | IC50 (KRAS GDP) | IC50 (off-target) | IC50 (NSD3) | IC50 (WRN (ext.)) | IC50 (off target [2]) | IC50 (off target (ext.)) | IC50 (UPAR) | Compound |
| --- | --- | --- | --- | --- | --- | --- | --- | --- | --- |
| > 10 µM | > 10 µM | 1 to 10 µM | > 10 µM | < 1 µM | 1 to 10 µM | > 10 µM | > 10 µM | 1 to 10 µM | [Cl][Au]([Cl])[Cl] [AuCl3, Gold(III) chloride] |
| > 10 µM | > 10 µM | > 10 µM | > 10 µM | > 10 µM | 1 to 10 µM | > 10 µM | > 10 µM | < 1 µM | [Cl][Cu][Cl] [CuCl2, Copper(II) chloride] |
| > 10 µM | > 10 µM | 1 to 10 µM | > 10 µM | > 10 µM | > 10 µM | > 10 µM | > 10 µM | > 10 µM | [Cl][Fe][Cl] [FeCl2, Iron(II) chloride] |
| > 10 µM | > 10 µM | 1 to 10 µM | > 10 µM | > 10 µM | > 10 µM | > 10 µM | > 10 µM | > 10 µM | [Cl][Fe]([Cl])[Cl] [FeCl3, Iron(III) chloride] |
| > 10 µM | > 10 µM | > 10 µM | > 10 µM | > 10 µM | > 10 µM | > 10 µM | > 10 µM | > 10 µM | [Cl][Mn][Cl] [MnCl2, Manganese(II) chloride] |
| > 10 µM | > 10 µM | > 10 µM | > 10 µM | > 10 µM | > 10 µM | > 10 µM | > 10 µM | < 1 µM | [Cl-].[Cl-].[Zn+2] [ZnCl2, Zinc(II) chloride] |
